From patent US8795222B2, “Device and method for treatment of surface infections with nitric oxide” (Pulmonox Technologies Corp., priority 2000, dated 2014) come the findings set out here.

Series [1] deals with full thickness infected wound. Kind of series: Histology of full thickness infected wound biopsies. The format is in vivo, rabbits. The conditions noted are these: 200 ppm gNO. As for the experimental part:
FIG. 13 illustrates histology analysis of full thickness infected wound exposed to 200 ppm gNO for 24 hours.
(§1) In vivo studies in animal models have further shown the beneficial effects of nitric oxide gas. In an animal model, full-thickness cutaneous wounds (Set A: four rabbits with eight 8.0 mm punch biopsies & Set B: 4 rabbits with two 50×15 mm wounds) were made on each side of dorsal midline and infected with equal volume of Staphylococcus aureus suspension on day zero. On day one, treated groups in A and B were respectively exposed to 200 and 400 ppm gNO for total of three days. Set A was exposed for two 4-hour sessions, interrupted by 1-hour of rest, inside a specialized restraining exposure chamber. A 24-hour continuous delivery model was used for animals in Set B by design of a specialized wound patch. Control groups were only exposed to medical grade air with corresponding flow rate. Four random sample punch biopsies (8.0 mm) were collected on post wounding days 3 and analyzed for bacterial content. Another four punch biopsies from both wound and normal skin tissue were collected for fibroblast viability analysis and toxic effects of gNO.
FIG. 13 presents histological analysis of tissue blocks prepared on wound punch biopsies from animals in treated and control groups. Samples from the control group show more advanced neutrophil infiltration and so a higher degree of inflammatory reaction. […] Wounds treated with gNO also show a layer of scab closing on the wound, but control wounds remain open for longer period of time.

For series [2], the system named is all microorganisms tested. Nature of the series: Bacteriocidal time study, 200 ppm gNO, saline suspension, all organisms together. Type of series: cell-based. As for the experimental part: (§2) Following the dose and time ranging studies, a series of experiments were performed to determine the time required to effectively induce a bacteriocidal effect with 200 parts per million of gNO, a concentration just above the dose used in the dose-ranging study, on a representative collection of drug resistant gram-positive and gram-negative strains of bacteria associated with clinical infection. A successful bacteriocidal effect was defined as a decrease in bacteria greater than 3 log10 cfu/ml. Further, C. albicans, Methicillin Resistant S. aureus (MRSA), a particularly resistant strain of P. aeruginosa from a cystic fibrosis patient, Group B Streptococcus, and M. smegmatis were also included to see if yeast, multi-drug resistant strains of bacteria, and actinomycetes have a similar response. The drug-resistant bacteria represent a variety of pathogens that contribute to both respiratory and wound infections.
(§3) For these experiments, saline was selected as a suspension media because it would not mask the direct effect of gNO as a bacteriocidal, whereas fully supplemented growth medium might introduce external variables (e.g., buffer or react with gNO). Other media might also provide metabolites and replenish nutrients that produce enzymes that protect bacteria from oxidative and nitrosative damage, thereby masking the effect of gNO. […] In saline, the colonies were static but remained viable. This is similar to the approach of Webert and Jean's use of animal models. Webert K E, et al (2000), Effects of inhaled nitric oxide in a rat model of Pseudomonas aeruginosa pneumonia, Crit. Care Med, 28(7):2397-2405 and Jean D, et al., (2002) Beneficial effects of nitric oxide inhalation on pulmonary bacterial clearance, Critical Care Medicine. 30(2):442-7.
The latent period was then followed by an abrupt death of all cells. Gram negative and gram positive bacteria, antibiotic resistant bacterial strains, yeast and mycobacteria were all susceptible to 200 ppm gNO. Of importance, is the observation that the two drug resistant bacteria strains were also susceptible.

In a further series the test system is Mycobacterium. Kind of series: Bacteriocidal time study, 200 ppm gNO, saline suspension. The format is cell-based, M. smegmatis. On the procedure: as §2, §3
The latent period was then followed by an abrupt death of all cells. Gram negative and gram positive bacteria, antibiotic resistant bacterial strains, yeast and mycobacteria were all susceptible to 200 ppm gNO. Of importance, is the observation that the two drug resistant bacteria strains were also susceptible. […]

For series [3], the system named is fibroblasts grown in a 3D matrix. Kind of series: Fibroblasts grown in a 3D matrix, migration and proliferation. The format is cell-based. The settings on record: 200 ppm NO for 8 hours per day for 3 days; compared with air or conventional incubator.
In the next series the test system is collagenase mRNA. Kind of series: mRNA expression after gNO exposure. Type of series: cell-based. The settings on record: 200 ppm gNO; 24 hours and 48 hours. The text has this:
Witte M B, et al, (2002) Nitric oxide enhances […] wound healing in diabetes, Br J. Surg., 89:1594-601. Thus, Applicants believe that NO may upregulate expression of both collagenase (MMP-1) and gelatinase (MMP-2), which may be important in keeping the wound clean from necrotic tissue while not prolonging the inflammatory phase.

A further series concerns Staphylococcus aureus. Nature of the series: Full thickness infected wound model, wound bacterial content. The format is in vivo, rabbits.
From the text: FIG. 9 illustrates wound bacterial content following topical application of 200 ppm gNO in a full thickness infected wound model in rabbits.
as §1, with “Set A was exposed for two 4-hour sessions, interrupted by 1-hour of rest, inside a specialized restraining exposure chamber.” left out
On average well over 10 fold drop (p<0.05) in bacterial content is observed in comparison between control and treated groups.

Setting [4] is: average of the 13 bacteria listed above it, without Mycobacterium.

Take `[N]=O` [gNO, nitric oxide]: the “toxic effects (cellular debris due to apoptosis), histology” value in series [1] is “No toxic effects”. In series [1] (compared with control wounds), the “healing process, histology” value was “healthier healing process” and the “neutrophil infiltration in wound” value is on record as “lower level of neutrophil concentration”. For the same molecule, the bacteriocidal effect entry in series [2] was “completely bacteriocidal effect”. Also, in series [2] (setting [4]), the “LD100, Average” value came to 4.77 h; the “Latent Period*, Average” value came to 2.77 h; the “−2.5 Log10, Average” value was 3.82 hrs. Further, the reduction in cfu/ml result in series [2] (every bacteria challenged) is listed as “at least a three log10 reduction”. In addition, in the series on Mycobacterium, the LD100 is 10 h and the “Latent Period*” value came to 7 h. In addition, the “−2.5 Log10” value with Mycobacterium (time to −2.5 log10 cfu/ml) came out at 9.2 hrs. Moreover, in series [3], the migration of fibroblasts result is “does not appear to affect” and the proliferation of fibroblasts entry is “does not appear to interfere”. For the same molecule, in the series with collagenase mRNA, the “expression of collagenase mRNA” value is “increased”. Besides, in the series with Staphylococcus aureus (200 ppm gNO continuously for 72 hours, compared with medical air control), the wound bacterial content result is given as “significant bacterial reduction”. Besides, in the series with Staphylococcus aureus (400 ppm gNO, control versus treated, p<0.05), the “drop in wound bacterial content” value is recorded as “over 10 fold”.
